The values that follow are results of earlier work, collected in US20140107130A1, “Oral Solution Formulations of Aripiprazole” (Antrim Pharmaceuticals, LLC, priority 2012, published 2014).

A word on the aqueous solubility: it is the concentration that dissolves in the medium under given conditions.

For series [1] the following is noted: intramuscular (IM) injectable solution; many water-miscible co-solvent and water-immiscible solvent/co-solvent systems.
For series [2] the following is noted: room temperature.

`O=C1CCc2ccc(OCCCCN3CCN(c4cccc(Cl)c4Cl)CC3)cc2N1` [Aripiprazole]: the “tissue irritation at the muscular site” value in series [1] was “unacceptable (moderate to severe) tissue irritation”. In series [2], the aqueous solubility was less than 1 µg/mL.
